From ChEMBL document CHEMBL1201862, “PubChem BioAssay data set” (2004)
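Grown in 96-well plates, cells were treated for 48 hours with each compound at five concentrations. Insufficient inhibition: endpoint recorded as highest concentration tested. GI50 = concentration required for 50% inhibition of growth.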 The source made the active and inactive calls. Rule as the data show it: active = GI50 up to about 1.1 µM and inactive = higher.

Assays:
Assay in all cases: NCI anticancer screen, dose series, 48 h
A498 = test system: A498
ACHN = test system: ACHN
CAKI-1 = test system: CAKI-1
DU-145 = test system: DU-145
HCT-116 = test system: HCT-116
HCT-15 = test system: HCT-15
HL-60 = test system: HL-60
K562 = test system: K562
KM12 = test system: KM12
LOX IMVI = test system: LOX IMVI
Malme-3M = test system: Malme-3M
NCI-H226 = test system: NCI-H226
NCI-H460 = test system: NCI-H460
OVCAR-3 = test system: OVCAR-3
PC-3 = test system: PC-3
RPMI-8226 = test system: RPMI-8226
SF-539 = test system: SF-539
SK-OV-3 = test system: SK-OV-3
SW-620 = test system: SW-620
U-251 = test system: U-251

Row | Structure (SMILES) | GI50 (A498) | GI50 (ACHN) | GI50 (CAKI-1) | GI50 (DU-145) | GI50 (HCT-116) | GI50 (HCT-15) | GI50 (HL-60) | GI50 (K562) | GI50 (KM12) | GI50 (LOX IMVI) | GI50 (Malme-3M) | GI50 (NCI-H226) | GI50 (NCI-H460) | GI50 (OVCAR-3) | GI50 (PC-3) | GI50 (RPMI-8226) | GI50 (SF-539) | GI50 (SK-OV-3) | GI50 (SW-620) | GI50 (U-251)
1 | Nc1ncn(C2OC(COP(=O)(O)O)C(O)C2O)c(=O)n1 (stereo not drawn) | > 100 µM (inactive) | 54.6 µM (inactive) | > 71.9 µM (inactive) | > 100 µM (inactive) | 75.9 µM (inactive) | > 100 µM | > 64.4 µM (inactive) | > 90.8 µM (inactive) | > 100 µM (inactive) | > 100 µM (inactive) | > 81.8 µM (inactive) | > 100 µM (inactive) | 52.8 µM (inactive) | > 100 µM (inactive) | > 100 µM (inactive) | > 100 µM (inactive) | > 100 µM (inactive) | > 100 µM (inactive) | > 100 µM (inactive) | > 100 µM (inactive)
2 | CC(=O)CC1(C)OC(N)=C(C#N)C1(C#N)C#N (stereo not drawn) | > 100 µM (inactive) | > 100 µM (inactive) | 59.4 µM (inactive) | > 100 µM (inactive) | 71.6 µM (inactive) | 43.9 µM | – | – | > 100 µM (inactive) | 81.1 µM (inactive) | 80 µM (inactive) | > 100 µM (inactive) | – | – | > 100 µM (inactive) | > 100 µM (inactive) | 86.1 µM (inactive) | > 100 µM (inactive) | > 100 µM (inactive) | > 100 µM (inactive)
3 | O=c1[nH]c2cc3[nH]c4ncccc4c(=O)c3cc2[nH]1 | > 10 µM (inactive) | > 10 µM (inactive) | > 10 µM (inactive) | > 10 µM (inactive) | > 10 µM (inactive) | > 10 µM | > 10 µM (inactive) | – | > 10 µM (inactive) | > 10 µM (inactive) | > 10 µM (inactive) | > 10 µM (inactive) | > 10 µM (inactive) | > 10 µM (inactive) | > 10 µM (inactive) | > 10 µM (inactive) | > 10 µM (inactive) | > 10 µM (inactive) | > 10 µM (inactive) | > 10 µM (inactive)
4 | S=C1c2ccccc2N=C(NC2CCCC2)C2CSCN12 (stereo not drawn) | 88.9 µM (inactive) | > 100 µM (inactive) | > 100 µM (inactive) | > 100 µM (inactive) | 80.7 µM (inactive) | > 100 µM | – | 39.8 µM (inactive) | 20.4 µM (inactive) | 75.2 µM (inactive) | > 100 µM (inactive) | 88.5 µM (inactive) | 61.1 µM (inactive) | 97.1 µM (inactive) | 40.6 µM (inactive) | 75.2 µM (inactive) | – | > 100 µM (inactive) | > 100 µM (inactive) | 95.5 µM (inactive)
5 | COC(=O)C1SC(SC)=NC12c1ccccc1Nc1ccccc12 (stereo not drawn) | 41.8 µM (inactive) | 36.3 µM (inactive) | 37.3 µM (inactive) | 36.4 µM (inactive) | 31.7 µM (inactive) | 29.4 µM | 29.5 µM (inactive) | 23.9 µM (inactive) | 41.7 µM (inactive) | 18 µM (inactive) | 22 µM (inactive) | 53.6 µM (inactive) | 22.1 µM (inactive) | 18.2 µM (inactive) | 28.3 µM (inactive) | 21.2 µM (inactive) | 17.5 µM (inactive) | 45.8 µM (inactive) | 36.6 µM (inactive) | 25.2 µM (inactive)
6 | CCCCCC(/C=C/[C@@H]1[C@@H](C(O)CCCCCC(=O)OC)C(=O)C[C@H]1O[Si](C)(C)C(C)(C)C)OCOCCOC (stereo partly drawn) | 20 µM (inactive) | 15.3 µM (inactive) | 17.2 µM (inactive) | 18 µM (inactive) | 4.37 µM (inactive) | 7.98 µM | – | > 21 µM (inactive) | 6.62 µM (inactive) | 3.54 µM (inactive) | 16.8 µM (inactive) | 18.2 µM (inactive) | 29.7 µM (inactive) | 14.9 µM (inactive) | 13.8 µM (inactive) | 2.71 µM (inactive) | 7.11 µM (inactive) | 18.8 µM (inactive) | 5.12 µM (inactive) | 7.26 µM (inactive)
7 | COC1C(C)OC(OC2CC(C)(O)Cc3cc4c(c(O)c32)C(=O)c2c(O)cc3c(c2C4=O)OC2OC3(C)C(O)C(N(C)C)C2O)C(OC)C1(C)OC (stereo not drawn) | 0.0256 µM (active) | – | – | 0.000809 µM (active) | 0.015 µM (active) | 0.00849 µM | 0.00541 µM (active) | 0.00438 µM (active) | 0.00527 µM (active) | 0.00316 µM (active) | 0.0561 µM (active) | 0.0508 µM (active) | 0.00345 µM (active) | 0.00516 µM (active) | 0.000204 µM (active) | 0.015 µM (active) | 0.00348 µM (active) | 0.136 µM (active) | 0.00457 µM (active) | 0.00285 µM (active)
8 | O=C1c2cccnc2S(=O)(=O)N1c1ccc([N+](=O)[O-])cc1 | > 100 µM (inactive) | > 100 µM (inactive) | > 100 µM (inactive) | > 100 µM (inactive) | > 100 µM (inactive) | > 100 µM | 24 µM (inactive) | – | > 100 µM (inactive) | > 100 µM (inactive) | 51.8 µM (inactive) | > 100 µM (inactive) | > 100 µM (inactive) | > 100 µM (inactive) | > 100 µM (inactive) | 57 µM (inactive) | > 100 µM (inactive) | > 100 µM (inactive) | > 100 µM (inactive) | > 100 µM (inactive)
9 | O=C1CC(Cl)c2c(Cl)sc(Cl)c21 (stereo not drawn) | 12.2 µM (inactive) | 1.95 µM (inactive) | 1.76 µM (inactive) | 2.47 µM (inactive) | 1.69 µM (inactive) | 2.02 µM | 1.4 µM (inactive) | 2.85 µM (inactive) | 1.67 µM (inactive) | 1.66 µM (inactive) | 1.42 µM (inactive) | 13.4 µM (inactive) | 13.8 µM (inactive) | 2.31 µM (inactive) | 2.2 µM (inactive) | 0.155 µM (active) | 2.63 µM (inactive) | 18.6 µM (inactive) | 1.75 µM (inactive) | –
10 | CC1OC(NCCNCCNC2OC(C)C(O)C(O)C2O)C(O)C(O)C1O (stereo not drawn) | > 100 µM (inactive) | > 100 µM (inactive) | – | > 100 µM (inactive) | > 100 µM (inactive) | > 100 µM | > 100 µM (inactive) | > 100 µM (inactive) | > 100 µM (inactive) | > 100 µM (inactive) | > 100 µM (inactive) | > 100 µM (inactive) | > 100 µM (inactive) | > 100 µM (inactive) | > 100 µM (inactive) | > 100 µM (inactive) | > 100 µM (inactive) | – | > 100 µM (inactive) | > 100 µM (inactive)
11 | O=C(O)C1C2C=CC(O2)C1C(=O)Nc1ccccc1 (stereo not drawn) | > 100 µM (inactive) | > 100 µM (inactive) | > 100 µM (inactive) | > 100 µM (inactive) | > 100 µM (inactive) | > 100 µM | – | > 100 µM (inactive) | > 100 µM (inactive) | > 100 µM (inactive) | > 100 µM (inactive) | > 100 µM (inactive) | – | > 100 µM (inactive) | > 100 µM (inactive) | > 100 µM (inactive) | – | > 100 µM (inactive) | > 100 µM (inactive) | > 100 µM (inactive)
